# Measured values taken from the supplement of paper PMC10307832.
# How the values were obtained:
# Experiment in all cases: relative viability (nuclei count vs DMSO), 5 days (fraction); higher = more cells survive
# [1] = tested on: LK-2
# Summary of the method: (§1)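 The day after seeding in 1536-well plates, lung cancer cell lines were treated by pin tool with a single drug, or with a fixed anchor-drug dose together with five library-drug doses (not always all listed) in √10 steps. After 5 days, a combined fix-and-stain solution (final 0.05% Triton X-100, 1% formaldehyde, 1 ug/ml Hoechst) was added. Nuclei counted on 4× images gave relative viability as treated counts over vehicle counts, reported as the median of duplicate plates.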
# [2] = tested on: COR-L23
# Summary of the method: as §1
# [3] = tested on: NCI-H3122
# Summary of the method: as §1
# [4] = tested on: HARA
# Summary of the method: as §1
# [5] = tested on: NCI-H441
# Summary of the method: as §1
# [6] = tested on: CAL-12T
# Summary of the method: as §1
# [7] = tested on: NCI-H2009
# Summary of the method: as §1
# [8] = tested on: NCI-H2170
# Summary of the method: as §1
# [9] = tested on: NCI-H727
# Summary of the method: as §1
# [10] = tested on: HCC-366
# Summary of the method: as §1
# [11] = tested on: NCI-H1650
# Summary of the method: as §1
# [12] = tested on: BEN
# Summary of the method: as §1
# [13] = tested on: COR-L 105
# Summary of the method: as §1
# [14] = tested on: NCI-H661
# Summary of the method: as §1
# [15] = tested on: NCI-H1437
# Summary of the method: as §1
# [16] = tested on: LU99A
# Summary of the method: as §1
# [17] = tested on: NCI-H1666
# Summary of the method: as §1
# [18] = tested on: 201T
# Summary of the method: as §1
# [19] = tested on: PC-14
# Summary of the method: as §1
# [20] = tested on: NCI-H2023
# Summary of the method: as §1
# [21] = tested on: EKVX
# Summary of the method: as §1
# [22] = tested on: ABC-1
# Summary of the method: as §1
# [23] = tested on: NCI-H838
# Summary of the method: as §1
compound,measurement,setting,value
COc1cc(N2CCC(C(N)=O)CC2)ccc1Nc1nc(N)c(Cl)c(Nc2ccccc2S(=O)(=O)C(C)C)n1 [HG-5-88-01] + C[C@@H](Oc1cc(-c2cnn(C3CCNCC3)c2)cnc1N)c1c(Cl)ccc(F)c1Cl [Crizotinib] (partner 1 µM),relative viability,[1]; first compound 0.04 µM,0.24
same,relative viability,[1]; first compound 0.1265 µM,0.227
same,relative viability,[1]; first compound 0.4 µM,0.234
same,relative viability,[1]; first compound 1.265 µM,0.249
same,relative viability,[1]; first compound 4 µM,0.21
same,relative viability,[2]; first compound 0.04 µM,0.651
same,relative viability,[2]; first compound 0.1265 µM,0.588
same,relative viability,[2]; first compound 0.4 µM,0.645
same,relative viability,[2]; first compound 1.265 µM,0.584
same,relative viability,[2]; first compound 4 µM,0.389
same,relative viability,[3]; first compound 0.04 µM,0.271
same,relative viability,[3]; first compound 0.1265 µM,0.264
same,relative viability,[3]; first compound 0.4 µM,0.292
same,relative viability,[3]; first compound 1.265 µM,0.233
same,relative viability,[3]; first compound 4 µM,0.173
same,relative viability,[4]; first compound 0.04 µM,1.09
same,relative viability,[4]; first compound 0.1265 µM,0.891
same,relative viability,[4]; first compound 0.4 µM,1.08
same,relative viability,[4]; first compound 1.265 µM,1.08
same,relative viability,[4]; first compound 4 µM,0.695
same,relative viability,[5]; first compound 0.04 µM,0.655
same,relative viability,[5]; first compound 0.1265 µM,0.764
same,relative viability,[5]; first compound 0.4 µM,0.554
same,relative viability,[5]; first compound 1.265 µM,0.648
same,relative viability,[5]; first compound 4 µM,0.431
same,relative viability,[6]; first compound 0.04 µM,0.589
same,relative viability,[6]; first compound 0.1265 µM,0.671
same,relative viability,[6]; first compound 0.4 µM,0.421
same,relative viability,[6]; first compound 1.265 µM,0.432
same,relative viability,[6]; first compound 4 µM,0.183
same,relative viability,[7]; first compound 0.04 µM,1.05
same,relative viability,[7]; first compound 0.1265 µM,1.03
same,relative viability,[7]; first compound 0.4 µM,0.938
same,relative viability,[7]; first compound 1.265 µM,0.962
same,relative viability,[7]; first compound 4 µM,0.853
same,relative viability,[8]; first compound 0.04 µM,1.23
same,relative viability,[8]; first compound 0.1265 µM,1.24
same,relative viability,[8]; first compound 0.4 µM,1.18
same,relative viability,[8]; first compound 1.265 µM,0.977
same,relative viability,[8]; first compound 4 µM,1.28
same,relative viability,[9]; first compound 0.04 µM,0.931
same,relative viability,[9]; first compound 0.1265 µM,0.937
same,relative viability,[9]; first compound 0.4 µM,0.827
same,relative viability,[9]; first compound 1.265 µM,0.492
same,relative viability,[9]; first compound 4 µM,0.585
same,relative viability,[10]; first compound 0.04 µM,0.642
same,relative viability,[10]; first compound 0.1265 µM,0.487
same,relative viability,[10]; first compound 0.4 µM,0.468
same,relative viability,[10]; first compound 1.265 µM,0.441
same,relative viability,[10]; first compound 4 µM,0.198
same,relative viability,[11]; first compound 0.04 µM,1.04
same,relative viability,[11]; first compound 0.1265 µM,1.01
same,relative viability,[11]; first compound 0.4 µM,0.948
same,relative viability,[11]; first compound 1.265 µM,0.817
same,relative viability,[11]; first compound 4 µM,0.373
same,relative viability,[12]; first compound 0.04 µM,0.975
same,relative viability,[12]; first compound 0.1265 µM,0.915
same,relative viability,[12]; first compound 0.4 µM,0.895
same,relative viability,[12]; first compound 1.265 µM,0.625
same,relative viability,[12]; first compound 4 µM,0.962
same,relative viability,[13]; first compound 0.04 µM,0.855
same,relative viability,[13]; first compound 0.1265 µM,0.728
same,relative viability,[13]; first compound 0.4 µM,0.519
same,relative viability,[13]; first compound 1.265 µM,0.346
same,relative viability,[13]; first compound 4 µM,0.366
same,relative viability,[14]; first compound 0.1265 µM,0.964
same,relative viability,[14]; first compound 0.4 µM,1.1
same,relative viability,[14]; first compound 1.265 µM,0.777
same,relative viability,[14]; first compound 4 µM,0.926
same,relative viability,[15]; first compound 0.04 µM,0.896
same,relative viability,[15]; first compound 0.1265 µM,0.927
same,relative viability,[15]; first compound 0.4 µM,0.899
same,relative viability,[15]; first compound 1.265 µM,0.822
same,relative viability,[15]; first compound 4 µM,1.03
same,relative viability,[16]; first compound 0.04 µM,0.554
same,relative viability,[16]; first compound 0.1265 µM,0.615
same,relative viability,[16]; first compound 0.4 µM,0.511
same,relative viability,[16]; first compound 1.265 µM,0.491
same,relative viability,[16]; first compound 4 µM,0.423
same,relative viability,[17]; first compound 0.04 µM,1.01
same,relative viability,[17]; first compound 0.1265 µM,1.1
same,relative viability,[17]; first compound 0.4 µM,0.941
same,relative viability,[17]; first compound 1.265 µM,0.794
same,relative viability,[17]; first compound 4 µM,0.594
same,relative viability,[18]; first compound 0.04 µM,1
same,relative viability,[18]; first compound 0.1265 µM,0.846
same,relative viability,[18]; first compound 0.4 µM,1.03
same,relative viability,[18]; first compound 1.265 µM,0.986
same,relative viability,[18]; first compound 4 µM,1.11
same,relative viability,[19]; first compound 0.04 µM,0.863
same,relative viability,[19]; first compound 0.1265 µM,0.972
same,relative viability,[19]; first compound 0.4 µM,0.914
same,relative viability,[19]; first compound 1.265 µM,0.783
same,relative viability,[19]; first compound 4 µM,0.238
same,relative viability,[20]; first compound 0.04 µM,0.729
same,relative viability,[20]; first compound 0.1265 µM,0.763
same,relative viability,[20]; first compound 0.4 µM,0.543
same,relative viability,[20]; first compound 1.265 µM,0.405
same,relative viability,[20]; first compound 4 µM,0.118
same,relative viability,[21]; first compound 0.04 µM,0.989
same,relative viability,[21]; first compound 0.1265 µM,0.93
same,relative viability,[21]; first compound 0.4 µM,0.892
same,relative viability,[21]; first compound 4 µM,0.843
same,relative viability,[22]; first compound 0.04 µM,1.15
same,relative viability,[22]; first compound 0.1265 µM,0.939
same,relative viability,[22]; first compound 0.4 µM,0.813
same,relative viability,[22]; first compound 1.265 µM,0.606
same,relative viability,[22]; first compound 4 µM,0.43
same,relative viability,[23]; first compound 0.04 µM,0.799
same,relative viability,[23]; first compound 0.1265 µM,0.868
same,relative viability,[23]; first compound 0.4 µM,0.641
same,relative viability,[23]; first compound 1.265 µM,0.571
same,relative viability,[23]; first compound 4 µM,0.596
